According to US10130604B2, “Composition and method for treating neurodegenerative disease” (priority 2012, dated 2018):
Read-outs that look alike come from different tables or passages of the source.

Key:
human DJ-1 promoter = experiment: Human DJ-1 promoter-luciferase reporter assay in HEK293 cells; format: cell-based; details: 48 hr treatment
Source text: The human DJ-1 2 kb promoter area was amplified by PCR using genomic DNA from HEK293 cells. The human DJ-1 promoter was then cloned into the pGLuc-Basic vector, and that reporter vector was transfected into HEK293 cells.

DJ-1 [1] = details: HEK293 reporter cells, 48 hr treatment
Experimental: Cells were lysed in a dissociation buffer containing 50 mM Tris-HCl, 10 mM NaCl, 0.1% Triton X-100 plus protease inhibitor cocktail (Roche). […] Protein concentration was determined by the BCA method (Pierce). Fifty μg of protein was separated on 10% SDSPAGE gel and transferred to a nitrocellulose membrane. After blocking nonspecific binding, membranes were incubated with antibodies to DJ-1 (1:5000, Chemicon), α-synuclein (1:3000, Transduction Laboratories), TH (1;2000, PelFreez), and β-actin (1:4000, Sigma). Blots were incubated with HRP-conjugated secondary antibody (1:10,000; Jackson Immune Research), followed by chemiluminescent detection (Perkin Elmer life Sciences) (31,38).
The luciferase assay was based on the pGLuc-Basic vector (NEB). The human DJ-1 2 kb promoter area was amplified by PCR using genomic DNA from HEK293 cells. The human DJ-1 promoter was then cloned into the pGLuc-Basic vector, and that reporter vector was transfected into HEK293 cells. G418 (200 μg/ml) was applied to the cultures, and resistant clones were selected and assayed for luciferase activity. […] Culture medium samples (20 μl) were incubated with Gaussia luciferase assay substrate (NEB), and luminescence was measured in a 96-well plate reader (BioTek Synergy HT Multi-Mode microplate reader).

α-synuclein = details: C57BL/6 mice, drinking water, two weeks
Experimental: (§1) Cells were lysed in a dissociation buffer containing 50 mM Tris-HCl, 10 mM NaCl, 0.1% Triton X-100 plus protease inhibitor cocktail (Roche). The mouse brain tissues were dissected and quickly frozen in dry ice. Tissues were thawed on ice and homogenized in dissociation buffer with protease inhibitors (Roche). Protein concentration was determined by the BCA method (Pierce). Fifty μg of protein was separated on 10% SDSPAGE gel and transferred to a nitrocellulose membrane. After blocking nonspecific binding, membranes were incubated with antibodies to DJ-1 (1:5000, Chemicon), α-synuclein (1:3000, Transduction Laboratories), TH (1;2000, PelFreez), and β-actin (1:4000, Sigma). Blots were incubated with HRP-conjugated secondary antibody (1:10,000; Jackson Immune Research), followed by chemiluminescent detection (Perkin Elmer life Sciences) (31,38).
(§2) Adult C57BL/6 mice (4-6 months old) were treated with PB and SB in drinking water for 14 days. The PB and SB were dissolved in water at concentrations of 500, 1000, 1500, and 2000 mg/L. Mice typically drink 4-5 ml of water per day, and their drinking volumes were not affected by the addition of PB or SB. Control animals received water with sodium chloride added to the same molarity as the sodium in the drug-treated animals. […]

DJ-1 [2] = details: N27 cells, two days treatment, Western blot
Experimental: Dopaminergic cells derived from embryonic day 12 rat mesencephalon and immortalized with the SV40 large T antigen designated 1RB3AN27, (N27 cells) were used (37). […] Cells were lysed in a dissociation buffer containing 50 mM Tris-HCl, 10 mM NaCl, 0.1% Triton X-100 plus protease inhibitor cocktail (Roche). […] Protein concentration was determined by the BCA method (Pierce). Fifty μg of protein was separated on 10% SDSPAGE gel and transferred to a nitrocellulose membrane. […] Blots were incubated with HRP-conjugated secondary antibody (1:10,000; Jackson Immune Research), followed by chemiluminescent detection (Perkin Elmer life Sciences) (31,38).

DJ-1 [3] = details: C57BL/6 mice, drinking water, two weeks, vs control
Experimental: as §1, §2

N27 cells [4] = details: two days pretreatment, then A53T α-synuclein adenovirus two days
[5] = cited from earlier work
Vamp2 = details: A53T human α-synuclein overexpression plus phenylbutyrate
N27 cells [6] = tested on: N27 cells
N27 cells [7] = details: shDJ-1 N27 cells; H2O2 75 or 100 μM, 6-OHDA 60 or 80 μM
[8] = tested on: Y39C α-synuclein transgenic mice; details: 1000 mg/L drinking water, 6 and 12 weeks
Experimental: The [MUT] α-synuclein transgenic mice were divided into younger (6-8 months=Young Tg) and older (10-12 months=Old Tg) groups. Each group received PB (1000 mg/L, 5.4 mM) or vehicle (NaCl) in the drinking water for 3 months. Animals were tested for rotarod and water maze performance after 6-weeks and 12-weeks of treatment. Mice were tested for their ability to run on a 3 cm diameter rotating rod (rotarod) at speeds ranging from 3 to 33 rpm. The protocol consisted of two phases: habituation (Day 1) and rotated training/testing (Days 2 to 5). During habituation on Day 1, the mice were trained to remain on the rotarod at 3 rpm. […] Each test day, the speed was increased, reaching 33 rpm by Day 5. The time the mice spent on the rotarod without falling was recorded for each trial.

dopamine neurons = details: vs MPTP alone
Experimental: Treatment with PB continued after MPTP injection. […] One week after MPTP lessoning, mouse brain tissues were dissected for Western blot and HPLC analysis. Mouse striatum was frozen in dry ice, sonicated in ice-cold 0.2 m perchloric acid and centrifuged at 15,000 g for 15 min at 4° C. An aliquot (5 μL) of the supernatant solution was analyzed by HPLC equipped with an electrochemical detector (CoulArray system ESA Model 5600; ESA, Boston, Mass., USA), a pump (ESA Model 580) set at 1.5 mL/min, and a reverse-phase C18 column (3 μm, 100 Å 4.6 mm, Waters, Milford, Mass., USA). The mobile phase was composed of 100 mm citric acid, 2% methanol, 1 mm EDTA and 5 mg/L sodium octyl sulfate (pH 3.0).

Nrf2 = details: N27 dopamine neurons
[9] = tested on: Y39C α-synuclein transgenic mice; details: 1000 mg/L drinking water, 6 and 12 weeks; remark: listed apart in the source
Experimental: The [MUT] α-synuclein transgenic mice were divided into younger (6-8 months=Young Tg) and older (10-12 months=Old Tg) groups. Each group received PB (1000 mg/L, 5.4 mM) or vehicle (NaCl) in the drinking water for 3 months. Animals were tested for rotarod and water maze performance after 6-weeks and 12-weeks of treatment. Spatial learning was assessed using the Morris water maze. The maze included a circular tank (120 cm in diameter) filled to 10 cm below the edge of the tank with 27° C. water that was made opaque by the addition of non-toxic black ink. A circular escape platform (10 cm in diameter) was located 1 cm below the surface of the water in a constant location in the northwest quadrant of the tank. Mice were first acclimated to the maze during three trial habituation sessions. Each testing session consisted of three consecutive days with four trials per day. The platform was invisible in the pool, and mice were allowed to swim for 60 sec before being returned to the home cage. The latency from all training and testing sessions was collected.

[10] = tested on: Y39C-α-synuclein transgenic mice; experiment: Rotarod test in Y39C-α-synuclein transgenic mice treated with glycerol phenylbutyrate; format: in vivo, mouse
Experimental: Transgenic mice were genetically programmed from birth to develop a “Parkinson-Plus” condition by depositing an abnormal form of a protein called Y39C-α-synuclein in neurons of the brain under control of the Thy1 promoter (see Zhou et al., J. Biol. Chem., 2008, 283, 9863-70). […] After 6 weeks of daily treatment, animals were placed on a rotating rod (Rotarod) at different speeds for up to 5 minutes. Animals which could not keep up with the turning rod fell off. The time they were able to stay on the rod was noted. […] These differences were statistically significant at the higher speeds, 21 and 26 rpm. At the highest speed, 33 rpm, all animals fell off the rod after about 50 seconds.

[11] = gut; cited from earlier work
[12] = 1000 mg/L drinking water, Western blot

## CCCC(=O)[O-].[Na+] [sodium butyrate]
Human DJ-1 promoter
  luciferase activity: increased luciferase activity
DJ-1 [1]
  DJ-1 protein levels: increased
α-synuclein
  α-synuclein concentrations in brain: not changed
DJ-1 [2]
  DJ-1 protein levels: 300 % of control
DJ-1 [3]
  brain DJ-1 levels: significantly increased DJ-1 levels

## O=C([O-])CCCc1ccccc1.[Na+] [sodium phenylbutyrate]
N27 cells [4]
  cell viability after A53T mutant α-synuclein expression: increased cell viability
  number of cells with α-synuclein aggregates: reduced the number of cells with α-synuclein aggregates
[5]
  half-life in vivo: 50 min
Vamp2
  Vamp2 overexpression, A53T with addition of phenylbutyrate: 200 fold
Human DJ-1 promoter
  luciferase activity: increased luciferase activity
N27 cells [6]; H2O2 75 or 100 μM, 6-OHDA 60 or 80 μM
  cell viability in naïve N27 cells: significantly improved cell viability
N27 cells [6]; cells exposed to H2O2 and A53T, not shown
  cell survival: substantially better
N27 cells [7]
  neuroprotective effect against H2O2 and 6-OHDA-induced toxicity after DJ-1 knockdown: effectively abolished the neuroprotective effect
[8]
  motor function (rotarod), Young Tg mice: did not change motor function
[8]; vs vehicle
  motor function (rotarod), Old Tg mice: significantly improved motor function
Lamp2; A53T expression plus phenylbutyrate
  increase in Lamp2 gene expression, with A53T: 400 fold
Lamp2; N27 dopamine neurons, drug alone
  increase in Lamp2 expression: about 30 fold
Lamp2; pretreatment 48 hr, then H2O2
  increase in Lamp2 expression, pretreatment followed by H2O2: 200 fold
Dopamine neurons; 1000 mg/L drinking water two weeks before MPTP
  striatal dopamine levels (HPLC): significantly increased striatal dopamine levels
Dopamine neurons; [12]
  DJ-1 levels in striatum: significantly increased
  tyrosine hydroxylase protein levels in striatum: increased
Dopamine neurons; 1000 mg/L drinking water
  numbers of TH positive dopamine neurons in the substantia nigra: significantly higher numbers of TH positive dopamine neurons
Nrf2
  increase in Nrf2 mRNA: 50 fold
[9]
  water maze performance, Young Tg mice: did not change water maze performance
[9]; vs vehicle
  water maze function, Old Tg mice: prevented the age-related decline in water maze function

## O=C(CCCc1ccccc1)OCC(COC(=O)CCCc1ccccc1)OC(=O)CCCc1ccccc1 [glycerol phenylbutyrate, Glycerol phenylbutyrate]
[10]; 6 weeks daily treatment, vs glycerol, significant at 21 and 26 rpm
  time able to stay on the rotating rod: able to stay on the rod longer
[10]; 33 rpm, all animals
  time until animals fell off the rod at the highest speed: about 50 seconds
[11]
  metabolism of the pro-drug: metabolized in the gut to produce the active compound phenylbutyrate
